In assay [1] the test system is Male Sprague Dawley (SD) rats. The assay can be described thus: In vivo assay of mechanical nociception (rat pinch model, perisciatic injection). The settings on record: test compound 0.5%, lidocaine 2%.
For assay [2], the system named is sodium channel response in hTRPV1-N1E115 cells. The assay can be described thus: FLIPR membrane potential assay of sodium channel response in hTRPV1-N1E115 cells with or without heat (47° C.) activation. The class given is cell-based. The note with it: for hTRPV1-N1E Nav 0.1 mM (% inhibition) 25° C. / hTRPV1-N1E Nav 1 mM (% inhibition) 25° C.: 25° C. (no heat activation); for hTRPV1-N1E Nav 0.1 mM (% inhibition) 47° C. / hTRPV1-N1E Nav 1 mM (% inhibition) 47° C.: 47° C. (heat activated); for IC50: 47° C., read-out: hTRPV1-N1E IC50 (μM) 47° C. In a few lines: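 hTRPV1-N1E115 cells loaded with FMP membrane-potential dye; compound added, then one duplicate plate heated at 47° C. for 10 min plus 30 min at room temperature, the other kept at room temperature 40 min. Depolarization by veratridine 100 μM final, with ATX-II 3 μM final; inhibition of the fluorescence signal scored.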

Assay [3] deals with T1, human Nav1.5 sodium channel (Homo sapiens, UniProt Q14524).
T1 construct: host or cells: HEK-293
T1 sequence (Q14524 whole entry): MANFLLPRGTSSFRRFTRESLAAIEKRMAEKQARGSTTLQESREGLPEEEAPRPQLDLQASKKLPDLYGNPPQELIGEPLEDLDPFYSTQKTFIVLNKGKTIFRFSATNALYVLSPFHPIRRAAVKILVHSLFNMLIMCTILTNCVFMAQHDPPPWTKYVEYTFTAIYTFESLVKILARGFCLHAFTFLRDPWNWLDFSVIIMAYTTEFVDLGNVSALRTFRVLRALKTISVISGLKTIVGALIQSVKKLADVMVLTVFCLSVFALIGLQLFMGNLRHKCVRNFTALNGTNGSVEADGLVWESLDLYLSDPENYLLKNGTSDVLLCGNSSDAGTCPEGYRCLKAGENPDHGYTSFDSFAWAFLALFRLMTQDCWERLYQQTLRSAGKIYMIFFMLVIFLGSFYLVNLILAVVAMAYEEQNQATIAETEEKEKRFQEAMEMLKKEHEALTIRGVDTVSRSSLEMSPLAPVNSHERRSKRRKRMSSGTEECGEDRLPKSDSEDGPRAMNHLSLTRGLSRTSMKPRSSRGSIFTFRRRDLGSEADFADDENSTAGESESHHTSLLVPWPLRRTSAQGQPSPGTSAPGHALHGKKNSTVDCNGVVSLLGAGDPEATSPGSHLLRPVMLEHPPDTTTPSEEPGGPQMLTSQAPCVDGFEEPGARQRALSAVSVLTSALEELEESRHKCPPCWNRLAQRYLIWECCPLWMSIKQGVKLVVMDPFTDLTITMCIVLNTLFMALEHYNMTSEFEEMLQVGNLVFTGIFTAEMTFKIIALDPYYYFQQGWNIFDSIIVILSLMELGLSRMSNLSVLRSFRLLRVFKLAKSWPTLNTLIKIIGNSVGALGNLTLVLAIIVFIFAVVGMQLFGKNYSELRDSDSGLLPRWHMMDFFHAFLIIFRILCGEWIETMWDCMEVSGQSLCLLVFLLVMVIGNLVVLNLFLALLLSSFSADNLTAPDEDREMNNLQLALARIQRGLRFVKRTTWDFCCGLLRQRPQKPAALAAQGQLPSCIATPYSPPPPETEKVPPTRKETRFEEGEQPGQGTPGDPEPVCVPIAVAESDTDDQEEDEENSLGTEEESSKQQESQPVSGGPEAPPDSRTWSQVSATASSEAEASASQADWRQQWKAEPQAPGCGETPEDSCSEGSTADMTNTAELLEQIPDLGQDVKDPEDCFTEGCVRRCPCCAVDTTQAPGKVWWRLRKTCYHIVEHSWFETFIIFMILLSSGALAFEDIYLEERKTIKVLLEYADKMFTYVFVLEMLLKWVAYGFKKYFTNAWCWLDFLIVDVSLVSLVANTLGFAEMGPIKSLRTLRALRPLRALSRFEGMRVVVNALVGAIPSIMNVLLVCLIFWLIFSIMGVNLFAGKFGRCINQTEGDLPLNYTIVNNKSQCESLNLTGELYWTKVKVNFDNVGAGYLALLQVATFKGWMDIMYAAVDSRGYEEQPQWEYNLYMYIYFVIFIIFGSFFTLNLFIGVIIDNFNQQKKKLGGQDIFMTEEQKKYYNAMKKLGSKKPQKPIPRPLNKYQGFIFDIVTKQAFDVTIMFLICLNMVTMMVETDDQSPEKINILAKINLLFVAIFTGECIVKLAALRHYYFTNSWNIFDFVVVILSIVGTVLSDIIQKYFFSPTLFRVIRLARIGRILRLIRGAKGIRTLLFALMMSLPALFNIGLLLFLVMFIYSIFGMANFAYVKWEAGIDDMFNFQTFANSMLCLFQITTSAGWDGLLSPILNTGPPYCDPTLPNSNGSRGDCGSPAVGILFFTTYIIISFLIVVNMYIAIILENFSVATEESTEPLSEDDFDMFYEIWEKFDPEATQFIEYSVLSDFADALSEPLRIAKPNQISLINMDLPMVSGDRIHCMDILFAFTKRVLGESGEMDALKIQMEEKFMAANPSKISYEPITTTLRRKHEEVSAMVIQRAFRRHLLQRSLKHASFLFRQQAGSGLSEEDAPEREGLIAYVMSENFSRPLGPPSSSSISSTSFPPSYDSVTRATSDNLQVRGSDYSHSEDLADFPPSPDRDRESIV
The assay can be described thus: FLIPR membrane potential assay in hNav1.5-HEK293 cells. The format is cell-based. Here is the method:
C. Method for Assessing the Extent of Inhibition of Sodium Channel Response with Compounds in hNav1.5-HEK293 Cells.
The following assay was used to assess the tendency of the test compounds to block the dominant cardiac sodium channel isoform. Nav1.5 sodium channels are known to be permeable to quaternary sodium channel blockers such as QX-314 and, thus, the assay was performed in the absence of a chemical TRPV1 agonist.
The hNav1.5-HEK-293 cells (CreaCell, France, a human embryonic kidney cell line expressing the human Nav1.5 sodium channel) were cultured in Growth medium (containing 1×DMEM (Gibco)+10% FBS (PAA Gold)+2% glutamine 100 mM (Gibco)+1% penicillin 10,000 U/mL streptomycin 10,000 μg/mL (Invitrogen)+1.2 mg/mL Geneticin® G418 (Invitrogen)) in 75 mL cell bind flasks (Corning). The following steps were followed exactly as mentioned. The spent medium was discarded and the cells rinsed once with PBS-1×. Accutase® (1-2 mL; PAA) solution was added. The plate was placed on a 37° C. warming incubator 3-5 minutes. As soon as cells are detached, 37° C. complete medium (9 mL) was added. The cell suspension is drawn into a sterile pipette and cells homogenized gently to dissociate cell aggregates. The cells were counted using a hemocytometer with Blue Trypan and then centrifuged 5 minutes at 400 g. The cells can be amplified or maintained by seeding […] in a T75 flask (final volume: 15 mL). 8000 cells in 50 μL Growth medium was added to each well of 384-well, clear bottomed, sterile poly-D-lysine coated plates with lid (Greiner-bio one) inside the laminar air-flow. The plates were incubated at 37° C. and 5% CO2 in a CO2 incubator (Thermo) for 48 hours.
On the day of the assay, cells were washed with Assay buffer, which was prepared using the components and amounts in the following Table 5. pH was adjusted to 7.4 with NaOH, volume made up to 500 mL with Milli-Q® water.
Assay Buffer was added to the cells and incubated at rt (25° C.) for 10 minutes. The compounds were diluted in assay buffer. The compounds were added and incubated at rt (25° C.) for 10 minutes. Red FMP Dye (MDC) was added to the cells and the plate was incubated at rt (25° C.) for 30 minutes. Veratridine stock (20 mM; Sigma) was prepared in DMSO; veratridine (final concentration of 30 μM) in assay buffer was added to each well of the cell seeded plates in the FLIPR and read taken for 10 minutes. The following table provides data illustrating the sodium channel activity of the test compounds in response to the presence or absence of heat stimulation in cells expressing hTRPV1. The compounds were tested for differential activity at 25° C. and 47° C. and at two test concentrations.

The subject of a further assay is isolated detrusor muscle. The assay can be described thus: In vitro assay for effect of compounds on bladder detrusor muscle (EFS-induced contractions). Set-up: species or system guinea-pigs. The note with it: cumulative concentration-response.
In assay [4] the test system is sodium current in DRG neurons. The note with it: co-applied with 1 μM capsaicin, whole-cell voltage clamp; read-out: in vitro apparent affinity (IC50) for blocking sodium current in DRG neurons; cited from earlier work.
The mark [5] stands for this setting: read-out: HEK Nav 1.5 IC50 (μM) (AVG).

The values that follow come from US9180115B2, “Cyclohexylamines” (Asana Biosciences, LLC, priority 2011, dated 2015).

Like-named read-outs stand apart in the source and are kept apart here.

Regarding `CC(C[N+](C)(C)C1CCCCC1)OC(=O)c1ccc(C(C)(C)C)cc1.[I-]` (centres unmarked) [Example 12, N-[2-((4-(tert-Butyl)benzoyl)oxy)propyl]-N,N-dimethyl-cyclohexanaminium iodide], the “Average Time of Analgesia” value in assay [1] (injection 200 μL) is on record as 0.5 h. Also, in assay [2], the “hTRPV1-N1E Nav 0.1 mM (% inhibition) 25° C.” value was 25 (N = 4) %, the “hTRPV1-N1E Nav 0.1 mM (% inhibition) 47° C.” value was 84 (N = 4) %, the “hTRPV1-N1E Nav 1 mM (% inhibition) 25° C.” value is listed as 17 (N = 4) % and the “hTRPV1-N1E Nav 1 mM (% inhibition) 47° C.” value is given as 88 (N = 4) %. In addition, in assay [2], the IC50 (in general, the concentration that gives 50% inhibition) fell in the range of 10 to 100 µM. 134 µM corresponded to half-maximal inhibition in assay [3] (HEK Nav 1.5 IC50 (μM) (AVG)) (IC50).

Consider `Cc1cc(C)c(C(=O)OC(C)C[N+](C)(C)C2CCCCC2)c(C)c1.[I-]` (centres unmarked) [Example 1, N,N-dimethyl-N-[2-((2,4,6-trimethylbenzoyl)oxy)propyl]cyclohexanaminium iodide], for which, in assay [1] (injection 100 μL), the “Average Time of Analgesia” value was determined as 7 h. Moreover, in assay [2], the “hTRPV1-N1E Nav 0.1 mM (% inhibition) 25° C.” value is on record as 13 (N = 4) %, the “hTRPV1-N1E Nav 0.1 mM (% inhibition) 47° C.” value is 73 (N = 4) %, the “hTRPV1-N1E Nav 1 mM (% inhibition) 25° C.” value is reported as 53 (N = 4) % and the “hTRPV1-N1E Nav 1 mM (% inhibition) 47° C.” value is listed as 92 (N = 4) %. Besides, the IC50 in assay [2] fell in the range of 10 to 100 µM. For the same compound, the half-maximal inhibitory concentration (IC50) in assay [3] (setting [5]) was found to be 240 µM.

As for `CCN(CC)CC(=O)Nc1c(C)cccc1C` [lidocaine], the EFS-induced detrusor contractions result in the assay with isolated detrusor muscle is reported as “concentration-dependent inhibitions of EFS-induced detrusor contractions”.

Turning to `CC[N+](CC)(CC)CC(=O)Nc1c(C)cccc1C` [QX-314], the half-inhibitory concentration (IC50) in assay [4] was 30 µM.

Regarding `CC(C[N+](C)(C)C1CCCCC1)OC(=O)c1ccccc1C(C)C.[I-]` (centres unmarked) [Example 2, N-[2-((2-isopropylbenzoyl)oxy)propyl]-N,N-dimethylcyclohexanaminium iodide], the “Average Time of Analgesia” value in assay [1] (injection 200 μL) turned out to be 12 h. Also, in assay [2], the “hTRPV1-N1E Nav 0.1 mM (% inhibition) 25° C.” value is 23 (N = 4) %, the “hTRPV1-N1E Nav 0.1 mM (% inhibition) 47° C.” value is given as 77 (N = 4) %, the “hTRPV1-N1E Nav 1 mM (% inhibition) 25° C.” value is 78 (N = 4) % and the “hTRPV1-N1E Nav 1 mM (% inhibition) 47° C.” value is listed as 89 (N = 4) %. Besides, in assay [2], the IC50 was 10 to 100 µM. Besides, the IC50 in assay [3] (setting [5]) amounted to 188 µM.
